Data: patent publication US10975037B2 (priority 2018, dated 2021)
Counter-ions that a name gives are not always drawn. Like-named read-outs stand apart in the source and are kept apart here. Marks after values point to notes of the source that are not given here.

Assays:
[1] = target: human RORγt ligand binding domain (RORγt LBD) (Homo sapiens (Human), UniProt P51449); test: RORγt ThermoFluor® assay (thermal shift binding)
In short: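 Thermal shift with 0.065 mg/mL RORγt LBD and 60 μM 1,8-ANS in 100 mM Hepes pH 7.0, 10 mM NaCl, 2.5 mM GSH, 0.002% Tween-20.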

full-length human RORγt = full-length human RORγt (Homo sapiens (Human), UniProt P51449); test: RORγt (full-length human) reporter assay, conditions A or B, HEK293T cells; format: cell-based; conditions: for inhibition at 2 µM: 2 μM compound concentration; for RORγt (FL) Reporter Assay A or B, % inhibition / inhibition at 3 µM: 3 μM compound concentration (footnote *)
Chain of full-length human RORγt (P51449 other isoform, or with tags, fused parts or gaps): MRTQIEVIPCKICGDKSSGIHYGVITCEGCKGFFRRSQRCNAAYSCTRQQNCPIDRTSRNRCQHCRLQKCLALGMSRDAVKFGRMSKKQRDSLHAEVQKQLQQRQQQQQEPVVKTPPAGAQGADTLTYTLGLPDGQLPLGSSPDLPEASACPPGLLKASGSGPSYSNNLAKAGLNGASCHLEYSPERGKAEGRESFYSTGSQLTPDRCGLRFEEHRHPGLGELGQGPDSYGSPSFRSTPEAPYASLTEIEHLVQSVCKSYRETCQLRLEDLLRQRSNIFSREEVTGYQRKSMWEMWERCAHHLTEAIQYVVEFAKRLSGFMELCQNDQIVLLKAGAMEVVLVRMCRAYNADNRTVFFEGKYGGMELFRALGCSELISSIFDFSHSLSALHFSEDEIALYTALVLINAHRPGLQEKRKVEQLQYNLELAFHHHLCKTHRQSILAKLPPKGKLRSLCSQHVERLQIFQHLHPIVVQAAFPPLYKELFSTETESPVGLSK
In short: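 After 16–20 h, dual firefly/Renilla luciferase luminescence was read. Firefly signal was normalized to DMSO and saturating reference compound, then to Renilla, and fitted for IC50; % inhibition is versus DMSO.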

[2] = HEK-293T, 1 μM compound concentration (footnote ***), read-out: RORγt (FL) Reporter Assay A or B, % inhibition
[3] = RORγt (FL) Reporter Assay A or B, IC50, HEK293T cells
[4] = read-out: ThermoFluor® Assay, Kd
[5] = HEK-293T, read-out: RORγt (FL) Reporter Assay A or B, % inhibition
[6] = HEK293T cells, read-out: RORγt (FL) Reporter Assay A or B, IC50

Chain of human RORγt ligand binding domain (RORγt LBD) (P51449 other isoform, or with tags, fused parts or gaps): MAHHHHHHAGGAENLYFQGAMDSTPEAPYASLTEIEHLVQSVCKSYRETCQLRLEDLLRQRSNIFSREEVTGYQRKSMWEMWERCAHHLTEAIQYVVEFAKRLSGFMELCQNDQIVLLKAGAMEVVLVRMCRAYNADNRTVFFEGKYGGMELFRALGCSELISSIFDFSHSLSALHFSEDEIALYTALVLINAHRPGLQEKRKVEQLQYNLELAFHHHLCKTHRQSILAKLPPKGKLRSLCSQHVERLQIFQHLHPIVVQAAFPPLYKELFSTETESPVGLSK

Compound	Kd ([1]; ThermoFluor® Assay, Kd)	IC50 (full-length human RORγt; [3])	Kd [1, 4]	inhibition at 2 µM (full-length human RORγt; [5])	other results
CCn1nc(C(=O)NC[C@H]2CC[C@H](S(N)(=O)=O)CC2)c(Cl)c1-c1ccc(CC(C)(C)C(F)(F)F)cc1OC(F)F [Example 51, 4-Chloro-5-(2-(difluoromethoxy)-4-(3,3,3-trifluoro-2,2-dimethylpropyl)phenyl)-1-ethyl-N-(((1r,4r)-4-sulfamoylcyclohexyl)methyl)-1H-pyrazole-3-carboxamide]	0.25 nM	4.6 nM			inhibition at 1 µM (full-length human RORγt; [2]): 113%
CCn1nc(C(=O)NC[C@@]2(O)CC[C@H](S(C)(=O)=O)C[C@@H]2N)c(Cl)c1-c1ccc(CC(C)(C)C(F)(F)F)cc1OC(F)F (stereo in doubt) [Example 7, N-(((1S*,2S*,4S*)-2-Amino-1-hydroxy-4-(methylsulfonyl)cyclohexyl)methyl)-4-chloro-5-(2-(difluoromethoxy)-4-(3,3,3-trifluoro-2,2-dimethylpropyl)phenyl)-1-ethyl-1H-pyrazole-3-carboxamide hydrobromide]	2.1 nM	68 nM			inhibition at 1 µM (full-length human RORγt; [2]): 103%
CCCn1nc(C(=O)NC[C@H]2CC[C@H](S(C)(=O)=O)CC2)c(Cl)c1-c1ccc(C[C@H](C)C(F)(F)F)cc1OC (single isomer, unassigned) [Example 41, 4-Chloro-5-(2-methoxy-4-((S*)-3,3,3-trifluoro-2-methylpropyl)phenyl)-N-(((1r,4S)-4-(methylsulfonyl)cyclohexyl)methyl)-1-propyl-1H-pyrazole-3-carboxamide]	0.28 nM	8 nM			inhibition at 0.67 µM (full-length human RORγt; HEK-293T, 0.67 μM compound concentration (footnote ****), read-out: RORγt (FL) Reporter Assay A or B, % inhibition): 98%
CCn1nc(C(=O)NC[C@]2(C#N)CC[C@@H](S(C)(=O)=O)CC2)c(Cl)c1-c1ccc(CC(C)(C)C(F)(F)F)cc1Cl [Example 166, 4-Chloro-5-(2-chloro-4-(3,3,3-trifluoro-2,2-dimethylpropyl)phenyl)-N-(((1s*,4s*)-1-cyano-4-(methylsulfonyl)cyclohexyl)methyl)-1-ethyl-1H-pyrazole-3-carboxamide]		0.92 nM	0.71 nM		inhibition at 0.07 µM (full-length human RORγt; HEK-293T, 0.07 μM compound concentration (footnote *********), read-out: RORγt (FL) Reporter Assay A or B, % inhibition): 88%
CCn1nc(C(=O)NC[C@]2(O)CC[C@@H](S(C)(=O)=O)CC2)c(Cl)c1-c1ccc(CCC(C)C)cc1OC [Example 75, 4-Chloro-1-ethyl-N-(((1s,4s)-1-hydroxy-4-(methylsulfonyl)cyclohexyl)methyl)-5-(4-isopentyl-2-methoxyphenyl)-1H-pyrazole-3-carboxamide]		25 nM	0.88 nM	62%	
CCn1nc(C(=O)NC[C@H]2CC[C@H](S(=O)(=O)NC(N)=O)CC2)c(Cl)c1-c1ccc(CC(C)(C)C(F)(F)F)cc1OC(F)F [Example 69, N-(((1r,4r)-4-(N-Carbamoylsulfamoyl)cyclohexyl)methyl)-4-chloro-5-(2-(difluoromethoxy)-4-(3,3,3-trifluoro-2,2-dimethylpropyl)phenyl)-1-ethyl-1H-pyrazole-3-carboxamide]			0.29 nM		RORγt (FL) Reporter Assay A or B, % inhibition (full-length human RORγt): 100* %; IC50 (full-length human RORγt; [6]): 51 nM
CCn1nc(C(=O)NC[C@@]2(O)CC[C@H](S(C)(=O)=O)C[C@@H]2O)c(Cl)c1-c1ccc(CC(C)(C)C(F)(F)F)cc1OC(F)F (single isomer, unassigned) [Example 47, 4-Chloro-5-(2-(difluoromethoxy)-4-(3,3,3-trifluoro-2,2-dimethylpropyl)phenyl)-N-(((1S*,2S*,4S*)-1,2-dihydroxy-4-(methylsulfonyl)cyclohexyl)methyl)-1-ethyl-1H-pyrazole-3-carboxamide]	0.37 nM	1.7 nM		103%	
COCCn1nc(C(=O)NC[C@]2(O)CC[C@@H](S(C)(=O)=O)CC2)c(C)c1-c1ccc(CC(C)(C)C(F)(F)F)cc1OC(F)F [Example 150, 5-(2-(Difluoromethoxy)-4-(3,3,3-trifluoro-2,2-dimethylpropyl)phenyl)-N-(((1s,4s)-1-hydroxy-4-(methylsulfonyl)cyclohexyl)methyl)-1-(2-methoxyethyl)-4-methyl-1H-pyrazole-3-carboxamide]		13 nM	1.9 nM	95%	
CCn1nc(C(=O)NC[C@]2(O)CC[C@@H](S(C)(=O)=O)CC2)c(Cl)c1-c1ccc(CC(C)C)cc1OC [Example 73, 4-Chloro-1-ethyl-N-(((1s,4s)-1-hydroxy-4-(methylsulfonyl)cyclohexyl)methyl)-5-(4-isobutyl-2-methoxyphenyl)-1H-pyrazole-3-carboxamide]		11 nM	0.63 nM	61%	
CCn1nc(C(=O)NC[C@H]2CC[C@H](S(C)(=O)=O)CC2)c(Cl)c1-c1ccc(OCCC(F)(F)F)cc1OC [Example 213, 4-Chloro-1-ethyl-5-(2-methoxy-4-(3,3,3-trifluoropropoxy)phenyl)-N-(((1r,4r)-4-(methylsulfonyl)cyclohexyl)methyl)-1H-pyrazole-3-carboxamide]		77 nM	34 nM	77%	
CCn1nc(C(=O)NC[C@H]2CC[C@H](S(C)(=O)=O)C[NH+]2CC(=O)ON)c(Cl)c1-c1ccc(CC(C)(C)C(F)(F)F)cc1OC(F)F (stereo in doubt) [Example 64, N-(((2R*,5S*)-1-(2-(Aminooxy)-2-oxoethyl)-5-(methylsulfonyl)piperidin-2-yl)methyl)-4-chloro-5-(2-(difluoromethoxy)-4-(3,3,3-trifluoro-2,2-dimethylpropyl)phenyl)-1-ethyl-1H-pyrazole-3-carboxamide Trifluoroacetic Acid Salt]	3.2 nM	51 nM			inhibition at 3 µM (full-length human RORγt; [5]): 119%
CCn1nc(C(=O)NC[C@H]2CC[C@H](S(C)(=O)=O)CC2)c(Cl)c1-c1ccc(CCC(F)(F)F)cc1Cl [Example 174, 4-Chloro-5-(2-chloro-4-(3,3,3-trifluoropropyl)phenyl)-1-ethyl-N-(((1r,4r)-4-(methylsulfonyl)cyclohexyl)methyl)-1H-pyrazole-3-carboxamide]		38 nM	5.9 nM		inhibition at 0.67 µM (full-length human RORγt; [5]): 40%
CCn1nc(C(=O)NC[C@]2(O)CC[C@@H](S(C)(=O)=O)CC2)c(Cl)c1-c1ccc(CCC(F)(F)F)cc1OC(F)F [Example 221, 4-Chloro-5-(2-(difluoromethoxy)-4-(3,3,3-trifluoropropyl)phenyl)-1-ethyl-N-(((1s,4s)-1-hydroxy-4-(methylsulfonyl)cyclohexyl)methyl)-1H-pyrazole-3-carboxamide]		9.3 nM	2.5 nM		inhibition at 3 µM (full-length human RORγt; [5]): 90%
CCn1nc(C(=O)NC[C@]2(O)CC[C@@H](S(C)(=O)=O)CC2)c(Cl)c1-c1c(F)cc(C[C@H](C)C(F)(F)F)cc1F (single isomer, unassigned) [Example 198, 4-Chloro-5-(2,6-difluoro-4-((S*)-3,3,3-trifluoro-2-methylpropyl)phenyl)-1-ethyl-N-(((1s,4R)-1-hydroxy-4-(methylsulfonyl)cyclohexyl)methyl)-1H-pyrazole-3-carboxamide]	16 nM	79 nM		69%	
CCn1nc(C(=O)NC[C@H]2CC[C@H](S(C)(=O)=O)CC2)c(Cl)c1-c1ccc(C[C@@H](C)C(F)(F)F)cc1OC(F)F (single isomer, unassigned) [Example 135, 4-Chloro-5-(2-(difluoromethoxy)-4-((R*)-3,3,3-trifluoro-2-methylpropyl)phenyl)-1-ethyl-N-(((1r,4R)-4-(methylsulfonyl)cyclohexyl)methyl)-1H-pyrazole-3-carboxamide]	0.46 nM	11 nM			inhibition at […] (full-length human RORγt; HEK-293T, 0.33 μM compound concentration (footnote *****), read-out: RORγt (FL) Reporter Assay A or B, % inhibition): 83%
C[C@H](Cc1ccc(-c2c(Cl)c(C(=O)NC[C@H]3CC[C@H](S(C)(=O)=O)CC3)nn2C)c(OC(F)F)c1)C(F)(F)F [Example 151, 4-Chloro-5-(2-(difluoromethoxy)-4-((R)-3,3,3-trifluoro-2-methylpropyl)phenyl)-1-methyl-N-(((1r,4R)-4-(methylsulfonyl)cyclohexyl)methyl)-1H-pyrazole-3-carboxamide]		23 nM	1.6 nM		inhibition at 1 µM (full-length human RORγt; [5]): 92%
CCn1nc(C(=O)NC[C@H]2CC[C@H](S(=O)(=O)NC(=O)NC)CC2)c(Cl)c1-c1ccc(CC(C)(C)C(F)(F)F)cc1OC(F)F [Example 71, 4-Chloro-5-(2-(difluoromethoxy)-4-(3,3,3-trifluoro-2,2-dimethylpropyl)phenyl)-1-ethyl-N-(((1r,4r)-4-(N-(methylcarbamoyl)sulfamoyl)cyclohexyl)methyl)-1H-pyrazole-3-carboxamide]			0.23 nM		RORγt (FL) Reporter Assay A or B, % inhibition (full-length human RORγt): 114* %; IC50 (full-length human RORγt; [6]): 13 nM
CCn1nc(C(=O)NC[C@H]2CC[C@H](S(C)(=O)=O)CC2)c(Cl)c1-c1ccc(N[C@H](C)C(F)(F)F)cc1F [Example 181, 4-Chloro-1-ethyl-5-(2-fluoro-4-(((R)-1,1,1-trifluoropropan-2-yl)amino)phenyl)-N-(((1r,4R)-4-(methylsulfonyl)cyclohexyl)methyl)-1H-pyrazole-3-carboxamide]		45 nM	7 nM	101%	
